Test results published in patent publication US10780043B2, “Cosmetic compositions comprising ginger root extracts” (Symrise AG, priority 2015, dated 2020).

Tested on: CYP1A1 gene expression
Test: CYP1A1 gene expression (qRT-PCR) in keratinocytes after induction with model particles
Format: cell-based, human
Details: 10 μM, untreated = 1
Protocol: Gene expression was analyzed via qRT-PCR.

## E/Z-2-benzylindene-5,6-dimethoxy-3,3-dimethylindan-1-one [BDDI]
NHEK adult, SRM1650 1.5 μg/cm2, 6 h
  CYP1A1 Induction mean ± SE: 0.02 ± 0.00
NHEK adult, SRM2975 1.5 μg/cm2, 6 h
  CYP1A1 Induction mean ± SE: 0.20 ± 0.00
NHEK adult, SRM2975 1.5 μg/cm2, 24 h
  CYP1A1 Induction mean ± SE: 0.01 ± 0.00
Indoor particles Huber990 1.5 μg/cm2, 6 h
  CYP1A1 Induction mean ± SE: 0.05 ± 0.00
Indoor particles Huber990 1.5 μg/cm2, 24 h
  CYP1A1 Induction mean ± SE: 0.20 ± 0.00
